# Test results as given in US20030232906A1, “Stabilized coating compositions containing isothiazolone” (priority 2002, published 2003).
# Like-named read-outs stand apart in the source and are kept apart here.
# Assay type: physicochemical
# Details: for retention of 2-n-octyl-3-isothiazolone active ingredient after 14 days: 1% solution in 95% propylene glycol/5% water, pH 10.0-10.1 (NaOH), no metal salt stabilizers
# Description: A 2-n-octyl-3-isothiazolone solution (1%) was prepared in 95% propylene glycol/5% water and the pH was adjusted to 10.0-10.1 with NaOH; no metal salt stabilizers were added to the mixture. Samples of this mixture were then stored at ambient temperature (approximately 25° C.) and also in an oven at 40° C. After 14 days, there was no loss of 2-n-octyl-3-isothiazolone active ingredient (100% retention) for samples stored at either 25° C. or 40° C.
smiles,measurement,setting,value
"CCCCCCCCn1sccc1=O [2-n-octyl-3-isothiazolone, 2-n-Octyl-3-isothiazolone]",stability at high pH in the absence of amines (in words),,stable
same,retention of 2-n-octyl-3-isothiazolone active ingredient after 14 days,40° C.,100%
same,retention of 2-n-octyl-3-isothiazolone active ingredient after 14 days,approx. 25° C.,100%
